Results on 21 molecules are retold here after patent US9580390B2, “Indazole compounds as kinase inhibitors and method of treating cancer with same” (University Health Network, priority 2011, dated 2017).

Each structure is given as a SMILES string. Read-outs that look alike come from different tables or passages of the source.

The test system of assay [1] is colon cancer cells (HCT116). The assay can be described thus: Cancer cell line growth inhibition (SRB assay). Type of assay: cell-based. As to conditions: Homo sapiens, HCT-116, read-out: Cancer Cell Line GI50 Range HCT116. (In general: The SRB assay estimates cell density from bound dye.)
For assay [2], the system named is ovarian cancer cells (PA-1). Nature of the assay: Cancer cell line growth inhibition (SRB assay). As to conditions: read-out: Cancer Cell Line GI50 Range PA-1. Type of assay: cell-based.
For a further assay, the target named is T1, human TTK (Homo sapiens, UniProt P33981).
T1 construct: amino terminal GST fusion of full length human TTK; purchased Invitrogen
T1 sequence (P33981 1-857): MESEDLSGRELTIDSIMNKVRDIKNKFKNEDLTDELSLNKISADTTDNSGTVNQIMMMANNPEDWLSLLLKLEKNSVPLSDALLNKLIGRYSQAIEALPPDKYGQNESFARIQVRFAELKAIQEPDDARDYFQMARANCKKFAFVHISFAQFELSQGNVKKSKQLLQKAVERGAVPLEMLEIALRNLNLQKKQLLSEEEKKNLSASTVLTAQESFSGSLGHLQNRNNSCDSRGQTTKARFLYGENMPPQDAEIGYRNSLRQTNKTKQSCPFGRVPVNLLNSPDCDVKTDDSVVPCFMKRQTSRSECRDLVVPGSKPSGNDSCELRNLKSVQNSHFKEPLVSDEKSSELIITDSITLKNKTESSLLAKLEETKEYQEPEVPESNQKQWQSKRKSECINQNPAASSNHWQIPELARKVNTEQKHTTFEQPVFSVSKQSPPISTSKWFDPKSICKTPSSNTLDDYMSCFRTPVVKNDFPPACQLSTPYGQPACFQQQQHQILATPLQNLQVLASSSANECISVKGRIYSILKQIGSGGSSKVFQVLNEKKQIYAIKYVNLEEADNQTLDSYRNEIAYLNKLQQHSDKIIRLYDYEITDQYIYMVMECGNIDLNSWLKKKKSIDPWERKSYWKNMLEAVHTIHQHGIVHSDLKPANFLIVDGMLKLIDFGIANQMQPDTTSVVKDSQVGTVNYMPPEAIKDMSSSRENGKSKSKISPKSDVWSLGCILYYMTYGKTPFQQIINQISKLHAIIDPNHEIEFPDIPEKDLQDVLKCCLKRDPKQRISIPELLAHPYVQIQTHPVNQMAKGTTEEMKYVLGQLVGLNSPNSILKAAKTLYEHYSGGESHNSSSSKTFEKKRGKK
Nature of the assay: TTK inhibition assay (indirect ELISA). The format is biochemical. As to conditions: read-out: TTK IC50 Range.

Setting [3] is: HCT116 colon cancer cells, SRB assay.
[4] abbreviates: PA-1 ovarian cancer cells, SRB assay.

One may read the GI50 as the concentration that inhibits growth by half. Usually IC50 stands for the concentration needed to halve the response being measured. As to `CC(C)CC(NC(=O)c1ccc2[nH]nc(-c3ccc(OC4CCN(C5COC5)CC4)cc3)c2c1)c1ccccn1` (stereo not drawn) [Example A291, N-(3-methyl-1-(pyridin-2-yl)butyl)-3-(4-((1-(oxetan-3-yl)piperidin-4-yl)oxy)phenyl)-1H-indazole-5-carboxamide], the GI50 in assay [1] was under 0.1 µM; in assay [2] (Homo sapiens, PA-1), under 0.1 µM. In addition, the IC50 at human TTK was under 0.1 µM.
As for `CC(C)[C@H](NC(=O)c1ccc2[nH]nc(-c3ccc(OC4CCN(C5COC5)CC4)nc3)c2c1)c1ccccc1Cl` [Example A294, (S)-N-(1-(2-chlorophenyl)-2-methylpropyl)-3-(6-((1-(oxetan-3-yl)piperidin-4-yl)oxy)pyridin-3-yl)-1H-indazole-5-carboxamide], the GI50 in assay [1] was 0.1 to 0.5 µM; in assay [2] (Homo sapiens, PA-1) it was 0.1 to 0.5 µM. In addition, the IC50 at human TTK was under 0.1 µM.
As to `CN1C2CCC1CC(Oc1ccc(-c3n[nH]c4ccc(C(=O)N[C@H](c5ccccn5)C5CC5)cc34)cc1)C2` (stereo partly drawn) [Example A397, N-((S)-cyclopropyl(pyridin-2-yl)methyl)-3-(4-((8-methyl-8-azabicyclo[3.2.1]octan-3-yl)oxy)phenyl)-1H-indazole-5-carboxamide], the concentration for 50% growth inhibition (GI50) in assay [1] was under 0.1 µM; in assay [2] (Homo sapiens, PA-1) it was under 0.1 µM. For the same molecule, the IC50 at human TTK was under 0.1 µM.
Take `CN1CCN(C(=O)c2cccc(-c3n[nH]c4ccc(NC(=O)C(c5ccsc5)N5CCCC5)cc34)c2)CC1` (stereo not drawn) [Example A96, N-(3-(3-(4-Methylpiperazine-1-carbonyl)phenyl)-1H-indazol-5-yl)-2-(pyrrolidin-1-yl)-2-(thiophen-3-yl)acetamide]: the GI50 in assay [1] (setting [3]) and in assay [2] (setting [4]) was over 0.5 µM throughout. Besides, the IC50 at human TTK is over 0.5 µM.
For the molecule `O=C(N[C@H](c1ccccn1)C1CC1)c1ccc2[nH]nc(-c3ccc(N4CCN(C5COC5)CC4)cc3)c2c1` [Example A401, (S)-N-(cyclopropyl(pyridin-2-yl)methyl)-3-(4-(4-(oxetan-3-yl)piperazin-1-yl)phenyl)-1H-indazole-5-carboxamide], the GI50 in assay [1] was under 0.1 µM; in assay [2] (Homo sapiens, PA-1) it was under 0.1 µM. For the same molecule, at human TTK, the IC50 is under 0.1 µM.
On to `O=C(NCC1(N2CCOCC2)CCCCC1)c1ccc2[nH]nc(-c3ccc(N4CCC(O)CC4)cc3)c2c1` [Example A427, 3-(4-(4-hydroxypiperidin-1-yl)phenyl)-N-((1-morpholinocyclohexyl)methyl)-1H-indazole-5-carboxamide], for which the GI50 in assay [1] (setting [3]) and in assay [2] (setting [4]) was under 0.1 µM in each case. Moreover, the IC50 on human TTK is under 0.1 µM.
In the case of `CN1CCC(Oc2ccc(-c3n[nH]c4ccc(C(=O)NCC5(c6ccccc6)CCCCC5)cc34)cc2)CC1` [Example A470, 3-(4-((1-methylpiperidin-4-yl)oxy)phenyl)-N-((1-phenylcyclohexyl)methyl)-1H-indazole-5-carboxamide], the GI50 in assay [1] (setting [3]) and in assay [2] (setting [4]) was 0.1 to 0.5 µM each time. In addition, the IC50 on human TTK was under 0.1 µM.
On to `CC(C)(C)OC(=O)N1CCC(Oc2ccc(-c3n[nH]c4ccc(NC(=O)C(c5ccsc5)N5CCCC5)cc34)cc2)CC1` (stereo not drawn) [Example A115, tert-butyl 4-(4-(5-(2-(pyrrolidin-1-yl)-2-(thiophen-3-yl)acetamido)-1H-indazol-3-yl)phenoxy)piperidine-1-carboxylate], for which the 50% growth inhibitory concentration (GI50) in assay [1] (setting [3]) and in assay [2] (setting [4]) was over 0.5 µM in each case. For the same molecule, the IC50 at human TTK was 0.1 to 0.5 µM.
Turning to `CC(C)(O)CN1CCC(Oc2ccc(-c3n[nH]c4ccc(C(=O)N[C@H](c5ccccn5)C5CCCC5)cc34)cc2)CC1` [Example A231, (S)-N-(cyclopentyl(pyridin-2-yl)methyl)-3-(4-((1-(2-hydroxy-2-methylpropyl)piperidin-4-yl)oxy)phenyl)-1H-indazole-5-carboxamide], the GI50 was under 0.1 µM in assay [1] and under 0.1 µM in assay [2] (Homo sapiens, PA-1). Moreover, on human TTK, the IC50 was under 0.1 µM.
As for `O=C(NCC1(c2ccccc2)CCCCC1)c1ccc2[nH]nc(-c3ccc(N4CCOCC4)cc3)c2c1` [Example A469, 3-(4-morpholinophenyl)-N-((1-phenylcyclohexyl)methyl)-1H-indazole-5-carboxamide], the GI50 in assay [1] (setting [3]) and in assay [2] (setting [4]) was 0.1 to 0.5 µM each time. The IC50 on human TTK is under 0.1 µM.
Regarding `CCC(CC)(CNC(=O)c1ccc2[nH]nc(-c3ccc(N4CCOCC4)cc3)c2c1)c1ccccc1` [Example A437, N-(2-ethyl-2-phenylbutyl)-3-(4-morpholinophenyl)-1H-indazole-5-carboxamide], the GI50 in assay [1] is 0.1 to 0.5 µM; in assay [2] (Homo sapiens, PA-1), 0.1 to 0.5 µM. Moreover, the concentration for half-maximal inhibition (IC50) at human TTK was under 0.1 µM.
Take `CN1CCC(Oc2ccc(-c3n[nH]c4ccc(C(=O)NCC5(c6ccncc6)CCOCC5)cc34)cc2)CC1` [Example A478, 3-(4-((1-methylpiperidin-4-yl)oxy)phenyl)-N-((4-(pyridin-4-yl)tetrahydro-2H-pyran-4-yl)methyl)-1H-indazole-5-carboxamide]: the GI50 in assay [1] (setting [3]) and in assay [2] (setting [4]) was over 0.5 µM throughout. Moreover, the IC50 on human TTK was under 0.1 µM.
In the case of `CCC(CNC(=O)c1ccc2[nH]nc(-c3ccc(N4CCOCC4)cc3)c2c1)c1ccccc1` (stereo not drawn) [Example A407, 3-(4-morpholinophenyl)-N-(2-phenylbutyl)-1H-indazole-5-carboxamide], the 50% growth inhibitory concentration (GI50) was over 0.5 µM in assay [1] and over 0.5 µM in assay [2] (Homo sapiens, PA-1). Besides, the IC50 at human TTK was under 0.1 µM.
For `CN1CCC(Oc2ccc(-c3n[nH]c4ccc(C(=O)NCC5(c6ccccc6)CCOCC5)cc34)cc2)CC1` [Example A473, 3-(4-((1-methylpiperidin-4-yl)oxy)phenyl)-N-((4-phenyltetrahydro-2H-pyran-4-yl)methyl)-1H-indazole-5-carboxamide], the GI50 in assay [1] (setting [3]) and in assay [2] (setting [4]) was 0.1 to 0.5 µM each time. Moreover, the IC50 on human TTK is under 0.1 µM.
`COc1ccc(NC(=O)Nc2ccc3[nH]nc(-c4ccc(OC5CCN(C)CC5)cc4)c3c2)c(C)c1` [Example A81, 1-(4-methoxy-2-methylphenyl)-3-(3-(4-((1-methylpiperidin-4-yl)oxy)phenyl)-1H-indazol-5-yl)urea]: the GI50 in assay [1] (setting [3]) and in assay [2] (setting [4]) was 0.1 to 0.5 µM throughout. In addition, at human TTK, the IC50 is 0.1 to 0.5 µM.
For `C[C@@H](O)CN1CCC(Oc2ccc(-c3n[nH]c4ccc(C(=O)N[C@H](c5ccccn5)C5CCCC5)cc34)cc2)CC1` [Example A230, N-((S)-cyclopentyl(pyridin-2-yl)methyl)-3-(4-((1-((R)-2-hydroxypropyl)piperidin-4-yl)oxy)phenyl)-1H-indazole-5-carboxamide], the GI50 in assay [1] was under 0.1 µM; in assay [2] (Homo sapiens, PA-1) it was under 0.1 µM. Further, the half-maximal inhibitory concentration (IC50) on human TTK was under 0.1 µM.
On to `O=C(NC(c1ccccn1)C1CCOCC1)c1ccc2[nH]nc(-c3ccc(OC4CCN(C5COC5)CC4)cc3)c2c1` (stereo not drawn) [Example A293, 3-(4-((1-(oxetan-3-yl)piperidin-4-yl)oxy)phenyl)-N-(pyridin-2-yl(tetrahydro-2H-pyran-4-yl)methyl)-1H-indazole-5-carboxamide], for which the GI50 lay in the range of 0.1 to 0.5 µM in assay [1] and 0.1 to 0.5 µM in assay [2] (Homo sapiens, PA-1). Moreover, the IC50 on human TTK was under 0.1 µM.
`Cc1ccccc1CC1(NC(=O)c2ccc3[nH]nc(-c4ccc(OC5CCN(C)CC5)cc4)c3c2)CC1` [Example A127, N-(1-(2-methylbenzyl)cyclopropyl)-3-(4-((1-methylpiperidin-4-yl)oxy)phenyl)-1H-indazole-5-carboxamide]: the GI50 in assay [1] (setting [3]) and in assay [2] (setting [4]) was 0.1 to 0.5 µM each time. Further, the IC50 on human TTK is under 0.1 µM.
On to `O=C(N[C@H](c1ccccc1)C1CC1)c1ccc2[nH]nc(-c3ccc(N4CCN(C5COC5)CC4)cc3)c2c1` [Example A399, (S)-N-(cyclopropyl(phenyl)methyl)-3-(4-(4-(oxetan-3-yl)piperazin-1-yl)phenyl)-1H-indazole-5-carboxamide], for which the GI50 in assay [1] is under 0.1 µM; in assay [2] (Homo sapiens, PA-1), 0.1 to 0.5 µM. For the same molecule, the IC50 on human TTK was under 0.1 µM.
In the case of `O=C(NC(c1ccccc1)C(F)F)c1ccc2[nH]nc(-c3ccc(OC4CCN(C5COC5)CC4)cc3)c2c1` (stereo not drawn) [Example A226, N-(2,2-difluoro-1-phenylethyl)-3-(4-((1-(oxetan-3-yl)piperidin-4-yl)oxy)phenyl)-1H-indazole-5-carboxamide], the GI50 in assay [1] was in the range of 0.1 to 0.5 µM; in assay [2] (Homo sapiens, PA-1), 0.1 to 0.5 µM. For the same molecule, on human TTK, the IC50 is under 0.1 µM.
Turning to `O=C(N[C@H](c1ccccc1)C1CC1)c1ccc2[nH]nc(-c3ccc(OC4CCN(C(=O)CO)CC4)cc3)c2c1` [Example A382, (S)-N-(cyclopropyl(phenyl)methyl)-3-(4-((1-(2-hydroxyacetyl)piperidin-4-yl)oxy)phenyl)-1H-indazole-5-carboxamide], the concentration for 50% growth inhibition (GI50) was under 0.1 µM in assay [1] and under 0.1 µM in assay [2] (Homo sapiens, PA-1). Further, the IC50 at human TTK is under 0.1 µM.
